Legend:
[1] = target: soluble human BACE1 catalytic domain (Homo sapiens (Human), UniProt P56817); experiment: BACE-1 Ki Assay (BACE-1 HTRF FRET Assay); assay type: biochemical; conditions: Ki calculated from IC50 using the Cheng-Prusoff equation; QSY7-APPswe-Eu substrate 200 nM, pH 5.0
Description: In another embodiment, the compounds of the invention comprise the example compounds shown in the table below, or a tautomer thereof, or a pharmaceutically acceptable salt of said compound or said tautomer. Examples 2 to 42 were prepared using the method similar to Ex. 1. Example 44 to 51 were synthesized using the method similar to Ex. 43. BACE-1 values reported in this table were measured using BACE-1 Ki Assay (BACE-1 HTRF FRET Assay).
• Reagents: Na^+-Acetate pH 5.0; 1% Brij-35; Glycerol; Dimethyl Sulfoxide (DMSO); Recombinant human soluble BACE1 catalytic domain (>95% pure); APP Swedish mutant peptide substrate (QSY7-APP^swe-Eu): QSY7-EISEVNLDAEFC-Europium-amide.
A homogeneous time-resolved FRET assay can be used to determine IC50 values for inhibitors of the soluble human BACE1 catalytic domain. This assay monitors the increase of 620 nm fluorescence that resulted from BACE1 cleavage of an APPswedish APP^swe mutant peptide FRET substrate (QSY7-EISEVNLDAEFC-Europium-amide). This substrate contains an N-terminal QSY7 moiety that serves as a quencher of the C-terminal Europium fluorophore (620 nm Em). In the absence of enzyme activity, 620 nm fluorescence is low in the assay and increased linearly over 3 hours in the presence of uninhibited BACE1 enzyme. Inhibition of BACE1 cleavage of the QSY7-APP^swe-Eu substrate by inhibitors is manifested as a suppression of 620 nm fluorescence.
Varying concentrations of inhibitors at 3× the final desired concentration in a volume of 10 ul are preincubated with purified human BACE1 catalytic domain (3 nM in 10 μl) for 30 minutes at 30° C. in reaction buffer containing 20 mM Na-Acetate pH 5.0, 10% glycerol, 0.1% Brij-35 and 7.5% DSMO. Reactions are initiated by addition of 10 μl of 600 nM QSY7-APP^swe-Eu substrate (200 nM final) to give a final reaction volume of 30 μl in a 384 well Nunc HTRF plate. The reactions are incubated at 30° C. for 1.5 hours. The 620 nm fluorescence is then read on a Rubystar HTRF plate reader (BMG Labtechnologies) using a 50 millisecond delay followed by a 400 millisecond acquisition time window. Inhibitor IC50 values are derived from non-linear regression analysis of concentration response curves. Ki values are then calculated from IC50 values using the Cheng-Prusoff equation using a previously determined […] of 8 μM for the QSY7-APP^swe-Eu substrate at BACE1.

[2] = target: purified human autoBACE-2 (Homo sapiens (Human), UniProt Q9Y5Z0); experiment: BACE-2 Assay (BACE-HTRF assay); assay type: biochemical; conditions: Ki calculated from IC50 using the Cheng-Prusoff equation; QSY7-EISEVNLDAEFC-Eu-amide substrate 200 nM, pH 5.0
Description: Inhibitor IC50s at purified human autoBACE-2 are determined in a time-resolved endpoint proteolysis assay that measures hydrolysis of the QSY7-EISEVNLDAEFC-Eu-amide FRET peptide substrate (BACE-HTRF assay). BACE-mediated hydrolysis of this peptide results in an increase in relative fluorescence (RFU) at 620 nm after excitation with 320 nm light. Inhibitor compounds, prepared at 3× the desired final concentration in 1×BACE assay buffer (20 mM sodium acetate pH 5.0, 10% glycerol, 0.1% Brij-35) supplemented with 7.5% DMSO are pre-incubated with an equal volume of autoBACE-2 enzyme diluted in 1×BACE assay buffer (final enzyme concentration 1 nM) in black 384-well NUNC plates for 30 minutes at 30° C. […] DMSO is present at […] final concentration in the assay. Following laser excitation of sample wells at 320 nm, the fluorescence signal at 620 nm is collected for 400 ms following a 50 μs delay on a RUBYstar HTRF plate reader (BMG Labtechnologies). Raw RFU data is normalized to maximum (1.0 nM BACE/DMSO) and minimum (no enzyme/DMSO) RFU values. IC50s are determined by nonlinear regression analysis (sigmoidal dose response, variable slope) of percent inhibition data with minimum and maximum values set to 0 and 100 percent respectively. Similar IC50s are obtained when using raw RFU data. The Ki values are calculated from the IC50 using the Cheng-Prusoff equation.

Sequence of soluble human BACE1 catalytic domain (P56817 75-416): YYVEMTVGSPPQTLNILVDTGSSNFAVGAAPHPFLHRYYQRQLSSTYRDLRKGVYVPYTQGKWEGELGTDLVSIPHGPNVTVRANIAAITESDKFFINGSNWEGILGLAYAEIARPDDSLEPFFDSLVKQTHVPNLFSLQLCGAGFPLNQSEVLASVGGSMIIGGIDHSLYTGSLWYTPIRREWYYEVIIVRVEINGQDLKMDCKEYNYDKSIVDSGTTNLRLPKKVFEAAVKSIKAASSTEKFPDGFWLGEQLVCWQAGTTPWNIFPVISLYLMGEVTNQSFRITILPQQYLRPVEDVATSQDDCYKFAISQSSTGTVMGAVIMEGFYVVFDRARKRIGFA
Sequence of purified human autoBACE-2 (Q9Y5Z0 63-473 limits assumed): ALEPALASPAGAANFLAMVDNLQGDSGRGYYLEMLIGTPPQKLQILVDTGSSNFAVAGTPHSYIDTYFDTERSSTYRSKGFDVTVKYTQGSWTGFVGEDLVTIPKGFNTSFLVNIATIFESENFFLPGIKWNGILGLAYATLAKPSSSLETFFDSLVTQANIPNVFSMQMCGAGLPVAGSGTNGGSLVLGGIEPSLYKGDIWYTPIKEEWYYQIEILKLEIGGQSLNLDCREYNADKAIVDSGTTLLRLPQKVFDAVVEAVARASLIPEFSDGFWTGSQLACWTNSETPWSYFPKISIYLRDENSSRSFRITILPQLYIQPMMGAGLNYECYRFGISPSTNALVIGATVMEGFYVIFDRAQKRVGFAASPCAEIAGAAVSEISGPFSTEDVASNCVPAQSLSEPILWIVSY

`C[C@@]1(c2cc(-c3cccc(C#N)c3)cs2)Cc2nc(C(F)(F)F)ncc2C(=N)N1` [Example 40, 3-{5-[(7S)-5-imino-7-methyl-2-(trifluoromethyl)-5,6,7,8-tetrahydropyrido[4,3-d]pyrimidin-7-yl]thiophen-3-yl}benzonitrile] was tested, and the Ki [1] was 58.2 nM and the Ki [2] was 23.1 nM.
Molecule `CC#Cc1cncc(-c2ccc(F)c([C@]3(C)Cc4ncncc4C(=N)N3)c2)c1` [Example 12, (7S)-7-[2-fluoro-5-(5-prop-1-yn-1-ylpyridin-3-yl)phenyl]-7-methyl-7,8-dihydropyrido[4,3-d]pyrimidin-5(6H)-imine] has a Ki [1] of 108 nM and a Ki [2] of 20.2 nM.
Work on `C[C@@]1(c2cc(-c3cncnc3)ccc2F)Cc2ncncc2C(=N)N1` [Example 7, (7S)-7-(2-fluoro-5-pyrimidin-5-ylphenyl)-7-methyl-7,8-dihydro-pyrido[4,3-d]pyrimidin-5(6H)-imine] yielded a Ki [1] of 771 nM and a Ki [2] of 3460 nM.
With `C[C@@]1(c2sc(-c3cccc(-c4nnco4)c3)cc2Cl)Cc2ncncc2C(=N)N1` [Example 15, (7S)-7-{3-chloro-5-[3-(1,3,4-oxadiazol-2-yl)phenyl]thiophen-2-yl}-7-methyl-7,8-dihydropyrido[4,3-d]pyrimidin-5(6H)-imine] the Ki [1] was 11.1 nM and the Ki [2] was 37.3 nM.
With `COc1ccc(C(=O)Nc2ccc(F)c([C@]3(C)Cc4nc(C)ncc4C(=N)N3)c2)nc1` [Example 47, N-{4-fluoro-3-[(7S)-5-imino-2,7-dimethyl-5,6,7,8-tetrahydropyrido[4,3-d]pyrimidin-7-yl]phenyl}-5-methoxypyridine-2-carboxamide] the Ki [1] was 15.4 nM and the Ki [2] was 15.3 nM.
`Cc1ncc2c(n1)C[C@@](C)(c1cc(NC(=O)c3ccc(F)cn3)ccc1F)NC2=N` [Example 44, 5-fluoro-N-{4-fluoro-3-[(7S)-5-imino-2,7-dimethyl-5,6,7,8-tetrahydropyrido[4,3-d]pyrimidin-7-yl]phenyl}pyridine-2-carboxamide] was tested, and the Ki [1] was 16.8 nM and the Ki [2] was 4.5 nM.
In the case of `COc1cccc(-c2ccc(F)c([C@]3(C)Cc4ncncc4C(=N)N3)c2)c1` [Example 5, (7S)-7-(4-fluoro-3′-methoxybiphenyl-3-yl)-7-methyl-7,8-dihydro-pyrido[4,3-d]pyrimidin-5(6H)-imine], the Ki [1] is reported as 199 nM and the Ki [2] is reported as 53.5 nM.
`COc1cncc(-c2ccc(F)c([C@]3(C)Cc4ncncc4C(=N)N3)c2)c1` [Example 8, (7S)-7-[2-fluoro-5-(5-methoxypyridin-3-yl)phenyl]-7-methyl-7,8-dihydropyrido[4,3-d]pyrimidin-5(6H)-imine] was tested, and the Ki [1] was 225 nM and the Ki [2] was 87.8 nM.
`Cc1ncc2c(n1)C[C@@](C)(c1sc(-c3cccc(C#N)c3)cc1Cl)NC2=N` [Example 24, 3-{4-chloro-5-[(7S)-5-imino-2,7-dimethyl-5,6,7,8-tetrahydropyrido[4,3-d]pyrimidin-7-yl]thiophen-2-yl}benzonitrile] was tested, and the Ki [1] was 52.7 nM and the Ki [2] was 28 nM.
In the case of `C[C@]1(c2sc(-c3cccc(-c4nnco4)c3)cc2Cl)NC(=N)c2cncnc2C1(F)F` [Example 20, (7S)-7-{3-chloro-5-[3-(1,3,4-oxadiazol-2-yl)phenyl]thiophen-2-yl}-8,8-difluoro-7-methyl-7,8-dihydropyrido[4,3-d]pyrimidin-5(6H)-imine], the Ki [1] is reported as 33.3 nM and the Ki [2] is reported as 118 nM.
`C[C@]1(c2cc(-c3cccc(C#N)c3)cs2)NC(=N)c2cncnc2C1(F)F` [Example 18, 3-{5-[(7S)-8,8-difluoro-5-imino-7-methyl-5,6,7,8-tetrahydropyrido[4,3-d]pyrimidin-7-yl]thiophen-3-yl}benzonitrile] was tested, and the Ki [1] was 81.5 nM and the Ki [2] was 39.8 nM.
In the case of `C[C@@]1(c2cc(-c3cncc(C#N)c3)cs2)Cc2nc(C3CC3)ncc2C(=N)N1` [Example 35, 5-{5-[(7S)-2-cyclopropyl-5-imino-7-methyl-5,6,7,8-tetrahydropyrido[4,3-d]pyrimidin-7-yl]thiophen-3-yl}pyridine-3-carbonitrile], the Ki [1] is reported as 224 nM and the Ki [2] is reported as 142 nM.
For `C[C@@]1(c2cc(-c3cccc(C#N)c3)cs2)Cc2nc(C3CC3)ncc2C(=N)N1` [Example 32, 3-{5-[(7S)-2-cyclopropyl-5-imino-7-methyl-5,6,7,8-tetrahydropyrido[4,3-d]pyrimidin-7-yl]thiophen-3-yl}benzonitrile], the Ki [1] was 128 nM and the Ki [2] was 65.6 nM.
With `Cc1ncc2c(n1)C[C@@](C)(c1cc(-c3cccc(C#N)c3)cs1)NC2=N` [Example 23, 3-{5-[(7S)-5-imino-2,7-dimethyl-5,6,7,8-tetrahydropyrido[4,3-d]pyrimidin-7-yl]thiophen-3-yl}benzonitrile] the Ki [1] was 151 nM and the Ki [2] was 87.9 nM.
`C[C@@]1(c2cc(NC(=O)c3ccc(F)cn3)ccc2F)Cc2nc(C3CC3)ncc2C(=N)N1` [Example 48, N-{3-[(7S)-2-cyclopropyl-5-imino-7-methyl-5,6,7,8-tetrahydropyrido[4,3-d]pyrimidin-7-yl]-4-fluorophenyl}-5-fluoropyridine-2-carboxamide] gave a Ki [1] of 13.1 nM and a Ki [2] of 3 nM.
For `C[C@@]1(c2cc(-c3cccc(-c4nnco4)c3)cs2)Cc2nc(C(F)(F)F)ncc2C(=N)N1` [Example 42, (7S)-7-methyl-7-{4-[3-(1,3,4-oxadiazol-2-yl)phenyl]thiophen-2-yl}-2-(trifluoromethyl)-7,8-dihydropyrido[4,3-d]pyrimidin-5(6H)-imine], the Ki [1] was 49.6 nM and the Ki [2] was 121 nM.
Molecule `C[C@]1(c2sc(-c3cccc(C#N)c3)cc2Cl)NC(=N)c2cncnc2C1(F)F` [Example 19, 3-{4-chloro-5-[(7S)-8,8-difluoro-5-imino-7-methyl-5,6,7,8-tetrahydropyrido[4,3-d]pyrimidin-7-yl]thiophen-2-yl}benzonitrile] has a Ki [1] of 246 nM and a Ki [2] of 128 nM.
Work on `Cc1ncc2c(n1)C[C@@](C)(c1cc(NC(=O)c3ccc(Cl)cn3)ccc1F)NC2=N` [Example 45, 5-chloro-N-{4-fluoro-3-[(7S)-5-imino-2,7-dimethyl-5,6,7,8-tetrahydropyrido[4,3-d]pyrimidin-7-yl]phenyl}pyridine-2-carboxamide] yielded a Ki [1] of 10.4 nM and a Ki [2] of 4.2 nM.
For `Cc1ncc2c(n1)C[C@@](C)(c1sc(-c3cncc(C#N)c3)cc1Cl)NC2=N` [Example 25, 5-{4-chloro-5-[(7S)-5-imino-2,7-dimethyl-5,6,7,8-tetrahydropyrido[4,3-d]pyrimidin-7-yl]thiophen-2-yl}pyridine-3-carbonitrile], the Ki [1] was 125 nM and the Ki [2] was 62.4 nM.
For `C[C@@]1(c2sc(-c3ccc(F)c(C#N)c3)cc2Cl)Cc2ncncc2C(=N)N1` [Example 16, 5-{4-chloro-5-[(7S)-5-imino-7-methyl-5,6,7,8-tetrahydropyrido[4,3-d]pyrimidin-7-yl]thiophen-2-yl}-2-fluorobenzonitrile], the Ki [1] was 36.4 nM and the Ki [2] was 16.7 nM.
For `C[C@@]1(c2cc(NC(=O)c3ccc(C#N)cn3)ccc2F)Cc2nccnc2C(=N)N1` [Example 51, 5-cyano-N-{4-fluoro-3-[(7S)-5-imino-7-methyl-5,6,7,8-tetrahydropyrido[3,4-b]pyrazin-7-yl]phenyl}pyridine-2-carboxamide], the Ki [1] was 62.7 nM and the Ki [2] was 207 nM.
With `C[C@@]1(c2cc(-c3cncc(C#N)c3)ccc2F)Cc2ncncc2C(=N)N1` [Example 9, 5-{4-fluoro-3-[(7S)-5-imino-7-methyl-5,6,7,8-tetrahydropyrido[4,3-d]pyrimidin-7-yl]phenyl}pyridine-3-carbonitrile] the Ki [1] was 601 nM and the Ki [2] was 483 nM.
